In PMC7397748, “Unlabeled lysophosphatidic acid receptor binding in free solution as determined by a compensated interferometric reader” (Journal of Lipid Research, 2020):

Target: T1, lysophosphatidic acid receptor 1 (LPA1) (Homo sapiens, UniProt Q92633)
T1 construct: gene LPAR1; human LPA1 with N-terminal HA tag (HA-LPA1), in B103 cell membrane nanovesicles
Test: label-free free-solution assay with compensated interferometric reader (FSA-CIR), receptor nanovesicles, vector-subtracted
Format: binding
Conditions: read-out: KD ± SEM

T1 sequence (Q92633 whole entry): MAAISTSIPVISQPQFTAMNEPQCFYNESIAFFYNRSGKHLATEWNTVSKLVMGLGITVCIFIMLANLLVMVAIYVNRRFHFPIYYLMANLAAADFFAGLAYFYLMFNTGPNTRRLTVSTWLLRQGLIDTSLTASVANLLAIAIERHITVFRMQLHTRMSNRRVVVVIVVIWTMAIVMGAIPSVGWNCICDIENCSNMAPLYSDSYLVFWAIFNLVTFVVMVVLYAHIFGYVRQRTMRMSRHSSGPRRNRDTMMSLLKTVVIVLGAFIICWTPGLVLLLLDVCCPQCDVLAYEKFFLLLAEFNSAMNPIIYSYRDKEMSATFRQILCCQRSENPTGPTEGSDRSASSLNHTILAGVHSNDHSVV

Kd	SMILES
1.69 nM	CCCCCCCCCCCCCCCC(=O)OC[C@@H](O)COP(=O)(O)O [16:0 LPA, 1-palmitoyl-LPA]
2.08 nM	CCCCCCCC/C=C\CCCCCCCC(=O)OC[C@@H](O)COP(=O)(O)O [18:1 LPA, 1-oleoyl-LPA]
2.59 nM	CCCCC/C=C\C/C=C\C/C=C\C/C=C\CCCC(=O)OC[C@@H](O)COP(=O)(O)O [20:4 LPA, 1-arachidonoyl-LPA]
